Like-named read-outs stand apart in the source and are kept apart here.
Experiments:
SF3b complexes = biological target: T1, SF3b complexes (Homo sapiens, UniProt O75533+Q7RTV0); experiment: Scintillation proximity assay (SPA) with [3H]-labelled pladienolide probe; assay type: binding; settings: SF3B1 (WT); geometric mean; read-out: SPA-ATS GMean IC50 (nM) SF3B1 (WT)
T1 construct: endogenous in cells; host or cells: Nuclear extracts; A HeLa S3 extract preparation is described for the in vitro splicing assay
Outline: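 SF3b complexes captured from nuclear extracts on anti-SF3B1 antibody SPA beads; test compounds pre-incubated 30 min before 2.5 nM [3H]-pladienolide probe added, then 30 min incubation. Bound probe read by scintillation; values from non-linear regression of concentration–response curves.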

[1] = system: Ad2 variant pre-mRNAs spliced in HeLa S3 nuclear extracts; experiment: In vitro splicing assay (IVS), RT-qPCR of spliced product; assay type: biochemical; settings: geometric mean
Outline: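 Read-out is one-step TaqMan RT-qPCR of spliced Ad2 mRNA with Ftz as reference, normalized to DMSO and fit by non-linear regression. Reactions held HeLa S3 nuclear extract, 2 ng Ad2-derived pre-mRNA and test compound, with 15 min preincubation. Splicing was started with ATP-containing activation buffer and run 90 min at 30 °C.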

[2] = system: NCI-H1568 cells (high MCL1); experiment: Cell proliferation and viability, CellTiter-Glo, 72 hours; assay type: cell-based; settings: for GI50: geometric mean; for CTGlo-ATS Mean MinResponse % 72 h NCIH1568.1: −100% cidal, 0% static, 100% maximal growth
Outline: (§1)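 ATP luminescence (CellTiter-Glo) was measured 72 h after treatment with compound at 10 μM–100 pM (11 points, half-log) in 0.1% DMSO. The Panc line was grown in RPMI-1640 plus insulin and 15% FBS, the other in 10% FBS. Data were normalised to time zero and vehicle controls, where −100% is cidal and 0% static.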

[3] = system: Panc 05.04 cells (SF3b K700E mutant); experiment: as above; assay type: cell-based; settings: for CTGlo-ATS Mean MinResponse % 72 h PANC0504.1: −100% cidal, 0% static, 100% maximal growth; for GI50: geometric mean
Outline: as §1

[4] = Ad2.1 pre-mRNA substrate, read-out: qPCR-IVS-ATS GMean IC50 (nM) Ad2.1
[5] = Ad2.2 pre-mRNA substrate, read-out: qPCR-IVS-ATS GMean IC50 (nM) Ad2.2
[6] = NCI-H1568, read-out: CTGlo-ATS GMean GI50 (nM) 72 h NCIH1568.1, NCIH1568.1 cells, 72 h
[7] = Panc 05.04, read-out: CTGlo-ATS GMean GI50 (nM) 72 h PANC0504.1, PANC0504.1 cells, 72 h
[8] = NCI-H1568, 72 h, read-out: CTGlo-ATS GMean GI50 (nM) 72 h NCIH1568.1, NCIH1568.1 cells, 72 h
[9] = Panc 05.04, 72 h, read-out: CTGlo-ATS GMean GI50 (nM) 72 h PANC0504.1, PANC0504.1 cells, 72 h

C/C(=C\c1cc(F)cc(N2CCNC2=O)c1)[C@H]1OC(=O)C[C@H](O)CC[C@H](C)[C@@H](OC(=O)N2CCN(C)CC2)/C=C/[C@@H]1C [Compound 64] was tested, and the IC50 (SF3b complexes) was 3.08 nM, the IC50 [1, 4] was 116 nM and the IC50 [1, 5] was 24.4 nM. For the same compound, the GI50 [2, 6] was 6.5 nM, the “CTGlo-ATS Mean MinResponse % 72 h NCIH1568.1” value ([2]; NCIH1568.1 cells, 72 h) was −66.274% and the “CTGlo-ATS Mean MinResponse % 72 h PANC0504.1” value ([3]; PANC0504.1 cells, 72 h) was −92.050%. It also gave a GI50 [3, 7] of 7.96 nM.
C/C(=C\c1cc(F)cc(N2CCN(CCO)C2=O)c1)[C@H]1OC(=O)C[C@H](O)CC[C@H](C)[C@@H](OC(=O)N2CCN(C)CC2)/C=C/[C@@H]1C [Compound 65] was tested, and the IC50 (SF3b complexes) was 2.83 nM, the IC50 [1, 4] was 26.2 nM and the IC50 [1, 5] was 17.3 nM. The GI50 [2, 8] was 5.88 nM, the “CTGlo-ATS Mean MinResponse % 72 h NCIH1568.1” value ([2]; NCIH1568.1 cells, 72 h) was −68.297% and the “CTGlo-ATS Mean MinResponse % 72 h PANC0504.1” value ([3]; PANC0504.1 cells, 72 h) was −88.951%. The GI50 [3, 9] was 5.74 nM.
In the case of C/C(=C\c1cc(F)cc(N2CCN(C#CF)C2=O)c1)[C@H]1OC(=O)C[C@H](O)CC[C@H](C)[C@@H](OC(=O)N2CCN(C)CC2)/C=C/[C@@H]1C [Compound 66], the IC50 (SF3b complexes) is reported as 2.23 nM, the IC50 [1, 4] is reported as 206 nM and the IC50 [1, 5] is reported as 33.9 nM. The GI50 [2, 6] was 11.7 nM, the “CTGlo-ATS Mean MinResponse % 72 h NCIH1568.1” value ([2]; NCIH1568.1 cells, 72 h) was −64.699% and the “CTGlo-ATS Mean MinResponse % 72 h PANC0504.1” value ([3]; PANC0504.1 cells, 72 h) was −89.623%. For the same compound, the GI50 [3, 7] was 8.22 nM.
With C/C(=C\c1cc(F)cc(N2CCN(CCN3CCOCC3)C2=O)c1)[C@H]1OC(=O)C[C@H](O)CC[C@H](C)[C@@H](OC(=O)N2CCN(C)CC2)/C=C/[C@@H]1C [Compound 67] the IC50 (SF3b complexes) was 1.95 nM, the IC50 [1, 4] was 22.7 nM and the IC50 [1, 5] was 20.2 nM. For the same compound, the GI50 [2, 6] was 8.6 nM, the “CTGlo-ATS Mean MinResponse % 72 h NCIH1568.1” value ([2]; NCIH1568.1 cells, 72 h) was −75.182% and the “CTGlo-ATS Mean MinResponse % 72 h PANC0504.1” value ([3]; PANC0504.1 cells, 72 h) was −87.661%. For the same compound, the GI50 [3, 7] was 7.27 nM.
C/C(=C\c1cc(F)cc(N2CCN(CC3CC3)C2=O)c1)[C@H]1OC(=O)C[C@H](O)CC[C@H](C)[C@@H](OC(=O)N2CCN(C)CC2)/C=C/[C@@H]1C [Compound 68] showed an IC50 (SF3b complexes) of 3.39 nM, an IC50 [1, 4] of 1870 nM and an IC50 [1, 5] of 35.7 nM. The GI50 [2, 6] was 12.4 nM, the “CTGlo-ATS Mean MinResponse % 72 h NCIH1568.1” value ([2]; NCIH1568.1 cells, 72 h) was −67.270% and the “CTGlo-ATS Mean MinResponse % 72 h PANC0504.1” value ([3]; PANC0504.1 cells, 72 h) was −93.925%. It also gave a GI50 [3, 7] of 11.7 nM.
In the case of C/C(=C\c1cc(F)cc(N2CCO[C@@H](C)C2)c1)[C@H]1OC(=O)C[C@H](O)CC[C@H](C)[C@@H](OC(=O)N2CCN(C)CC2)/C=C/[C@@H]1C [Compound 69], the IC50 (SF3b complexes) is reported as 3.83 nM, the IC50 [1, 4] is reported as 36.7 nM and the IC50 [1, 5] is reported as 20.9 nM. For the same compound, the GI50 [2, 8] was 4.04 nM, the “CTGlo-ATS Mean MinResponse % 72 h NCIH1568.1” value ([2]; NCIH1568.1 cells, 72 h) was −76.018% and the “CTGlo-ATS Mean MinResponse % 72 h PANC0504.1” value ([3]; PANC0504.1 cells, 72 h) was −86.274%. For the same compound, the GI50 [3, 9] was 7.48 nM.
C/C(=C\c1cc(F)cc(N2CCOC(C)C2)c1)[C@H]1OC(=O)C[C@H](O)CC[C@H](C)[C@@H](OC(=O)N2CCN(C)CC2)/C=C/[C@@H]1C (stereo partly shown) [Compound 70] was tested, and the IC50 (SF3b complexes) was 1.55 nM, the IC50 [1, 4] was 17.6 nM and the IC50 [1, 5] was 16.5 nM. The GI50 [2, 8] was 3.37 nM, the “CTGlo-ATS Mean MinResponse % 72 h NCIH1568.1” value ([2]; NCIH1568.1 cells, 72 h) was −77.042% and the “CTGlo-ATS Mean MinResponse % 72 h PANC0504.1” value ([3]; PANC0504.1 cells, 72 h) was −83.969%. For the same compound, the GI50 [3, 9] was 5.94 nM.
CC[C@H](O)[C@@H](C)CN1CCN(c2cc(F)cc(/C=C(\C)[C@H]3OC(=O)C[C@H](O)CC[C@H](C)[C@@H](OC(=O)N4CCN(C)CC4)/C=C/[C@@H]3C)c2)CC1 [Compound 71] gave an IC50 (SF3b complexes) of 3.71 nM, an IC50 [1, 4] of 29.7 nM and an IC50 [1, 5] of 18.9 nM. For the same compound, the GI50 [2, 6] was 6.39 nM, the “CTGlo-ATS Mean MinResponse % 72 h NCIH1568.1” value ([2]; NCIH1568.1 cells, 72 h) was −92.527% and the “CTGlo-ATS Mean MinResponse % 72 h PANC0504.1” value ([3]; PANC0504.1 cells, 72 h) was −68.599%. It also gave a GI50 [3, 7] of 11.5 nM.
Compound CC[C@H](O)[C@@H](C)C(=O)N1CCN(c2cc(F)cc(/C=C(\C)[C@H]3OC(=O)C[C@H](O)CC[C@H](C)[C@@H](OC(=O)N4CCN(C)CC4)/C=C/[C@@H]3C)c2)CC1 [Compound 72] has an IC50 (SF3b complexes) of 4.66 nM, an IC50 [1, 4] of 35.8 nM and an IC50 [1, 5] of 14 nM. The GI50 [2, 6] was 4.19 nM, the “CTGlo-ATS Mean MinResponse % 72 h NCIH1568.1” value ([2]; NCIH1568.1 cells, 72 h) was −80.730% and the “CTGlo-ATS Mean MinResponse % 72 h PANC0504.1” value ([3]; PANC0504.1 cells, 72 h) was −75.581%. It also gave a GI50 [3, 7] of 5.68 nM.
C/C(=C\c1cc(F)cc(N2CCN(S(=O)(=O)CCN3CCOCC3)CC2)c1)[C@H]1OC(=O)C[C@H](O)CC[C@H](C)[C@@H](OC(=O)N2CCN(C)CC2)/C=C/[C@@H]1C [Compound 73] gave an IC50 (SF3b complexes) of 2.42 nM, an IC50 [1, 4] of 13.1 nM and an IC50 [1, 5] of 13.6 nM. For the same compound, the GI50 [2, 6] was 5.85 nM, the “CTGlo-ATS Mean MinResponse % 72 h NCIH1568.1” value ([2]; NCIH1568.1 cells, 72 h) was −76.720% and the “CTGlo-ATS Mean MinResponse % 72 h PANC0504.1” value ([3]; PANC0504.1 cells, 72 h) was −79.201%. It also gave a GI50 [3, 7] of 6.91 nM.

— patent US11679107B2 (Eisai R&D Management Co., Ltd., priority 2018, dated 2023)
